Reference: patent US20140378416A1, “SILYL-CONTAINING HETEROCYCLIC COMPOUNDS AND METHODS OF USE THEREOF FOR THE TREATMENT OF VIRAL DISEASES” (priority 2011, published 2014)

Experiments:
HCV replicon 1a = test: Cell-based HCV replicon assay (TaqMan), genotype 1a replicon; settings: Hepatitis C virus, 72 h, HCV 1a replicon cells, replicon RNA by TaqMan on day 3; EC90 = concentration for ΔCT=3.2 over baseline
Procedure: (§1) Measurement of inhibition by compounds of the present invention was performed using the HCV replicon system. Several different replicons encoding different HCV genotypes or mutations were used. In addition, potency measurements were made using different formats of the replicon assay, including different ways of measurements and different plating formats. See Jan M. Vrolijk et al., A replicons-based bioassay for the measurement of interferons in patients with chronic hepatitis C, 110 J. VIROLOGICAL METHODS 201 (2003); Steven S. Carroll et al., Inhibition of Hepatitis C Virus RNA Replication by 2′-Modified Nucleoside Analogs, 278(14) J. BIOLOGICAL CHEMISTRY 11979 (2003). However, the underlying principles are common to all of these determinations, and are outlined below.
(§2) Compounds of the present invention were assayed for cell-based anti-HCV activity using the following protocol. Replicon cells were seeded at 5000 cells/well in 96-well collagen I-coated Nunc plates in the presence of the test compound. Various concentrations of test compound, typically in 10 serial 2-fold dilutions, were added to the assay mixture, with the starting concentration ranging from 250 μM to 1 μM. The final concentration of DMSO was 0.5%, fetal bovine serum was 5%, in the assay media. Cells were harvested on day 3 by the addition of 1× cell lysis buffer (Ambion cat #8721). The replicon RNA level was measured using real time PCR (TaqMan® assay). The amplicon was located in 5B. The PCR primers were: 5B.2F, ATGGACAGGCGCCCTGA (SEQ. ID NO. 1); 5B.2R, […] (SEQ. ID NO. 2); the probe sequence was FAM-labeled CACGCCATGCGCTGCGG (SEQ. ID NO. 3). GAPDH RNA was used as endogenous control and was amplified in the same reaction as NS5B (multiplex PCR) using primers and VIC-labeled probe recommended by the manufacturer (PE Applied Biosystem). The real-time […] reactions were run on ABI PRISM 7900HT Sequence Detection System using the following program: 48° C. for 30 minutes, 95° C. for 10 minutes, 40 cycles of 95° C. for 15 sec, 60° C. for 1 minute. The ACT values (CT5B-CTGAPDH) were plotted against the concentration of test compound and fitted to the sigmoid dose-response model using XLfit4 (MDL). EC50 was defined as the concentration of inhibitor necessary to achieve ΔCT=1 over the projected baseline; EC90 the concentration necessary to achieve ΔCT=3.2 over the baseline. Alternatively, to quantitate the absolute amount of replicon RNA, a standard curve was established by including serially diluted T7 transcripts of replicon RNA in the Taqman assay. All TaqMan® reagents were from PE Applied Biosystems. Such an assay procedure was described in detail in e.g. Malcolm et al., Antimicrobial Agents and Chemotherapy 50: 1013-1020 (2006).
(§3) HCV replicon EC50 assay data for various replicons and mutants was calculated for selected compounds of the present invention using this method and is provided in the tables above herein.

HCV replicon 2b = test: Cell-based HCV replicon assay (TaqMan), genotype 2b replicon; settings: Hepatitis C virus, 72 h, read-out: 2b EC90, HCV 2b replicon cells, replicon RNA by TaqMan on day 3; EC90 = concentration for ΔCT=3.2 over baseline
Procedure: as §1, §2, §3

HCV replicon 1a Y93H = test: Cell-based HCV replicon assay (TaqMan), genotype 1a Y93H mutant replicon; settings: Hepatitis C virus, 72 h, read-out: 1a Y93H EC90, HCV 1a Y93H mutant replicon cells, replicon RNA by TaqMan on day 3; EC90 = concentration for ΔCT=3.2 over baseline
Procedure: as §1, §2, §3

HCV replicon 1b = test: Cell-based HCV replicon assay (TaqMan), genotype 1b replicon; settings: Hepatitis C virus, 72 h, HCV 1b replicon cells, replicon RNA by TaqMan on day 3; EC90 = concentration for ΔCT=3.2 over baseline
Procedure: as §1, §2, §3

Structure (SMILES)	EC90 (HCV replicon 1a)	EC90 (HCV replicon 2b)	EC90 (HCV replicon 1a Y93H)	EC90 (HCV replicon 1b)
COC(=O)N[C@H](C(=O)N1C[Si](C)(C)C[C@H]1c1ncc(-c2ccc(-c3ccc(-c4cnc([C@@H]5C[C@H]6C[C@H]6N5C(=O)[C@@H](NC(=O)OC)C5CCOCC5)[nH]4)cc3)cc2)[nH]1)C1CCOCC1 [Compound 48]	0.18 nM	9 nM	144 nM	–
COC(=O)N[C@H](C(=O)N1C[Si](C)(C)C[C@H]1c1ncc(-c2ccc(-c3ccc(-c4[nH]c([C@@H]5CCCN5C(=O)[C@@H](NC(=O)OC)C(C)C)nc4Cl)cc3)cc2)[nH]1)C(C)C [Compound 64]	0.17 nM	99 nM	344 nM	–
C[Si]1(C)C[C@@H](c2ncc(-c3ccc(-c4ccc(-c5[nH]c([C@@H]6CCCN6C(=O)[C@H]6CCCO6)nc5Cl)cc4)cc3)[nH]2)N(C(=O)[C@H]2CCCO2)C1 [Compound 67]	211 nM	> 1000 nM	510 nM	–
COC(=O)N[C@H](C(=O)N1C[Si](C)(C)C[C@H]1c1ncc(-c2ccc(-c3ccc(-c4cnc([C@@H]5[C@H]6CC[C@H](C6)N5C(=O)[C@@H](NC(=O)OC)C(C)C)[nH]4)cc3)cc2)[nH]1)C(C)C [Compound 5]	0.21 nM	–	203 nM	0.004 nM
COC(=O)N[C@H](C(=O)N1C[Si](C)(C)C[C@H]1c1ncc(-c2ccc(-c3ccc4[nH]c([C@@H]5CC(F)(F)CN5C(=O)[C@@H](NC(=O)OC)C(C)C)nc4c3)cc2F)[nH]1)C(C)C [Compound 71]	> 1 nM	–	> 1000 nM	0.005 nM
COC(=O)N[C@H](C(=O)N1C[Si](C)(C)C[C@H]1c1ncc(-c2ccc(-c3ccc(-c4[nH]c([C@@H]5CCCN5C(=O)[C@@H](NC(=O)OC)C(C)C)nc4C4CC4)cc3)cc2)[nH]1)C(C)C [Compound 63]	0.69 nM	451 nM	882 nM	–
COC(=O)N[C@H](C(=O)N1C[C@H](F)C[C@H]1c1ncc(-c2ccc(C#Cc3ccc(-c4cnc([C@@H]5C[Si](C)(C)CN5)[nH]4)cc3)cc2)[nH]1)C(C)C [Compound 57]	780 nM	–	> 1000 nM	–
CC(C)(C)OC(=O)N1CCC[C@H]1C(=O)Nc1n[nH]c2ccc(-c3ccc(-c4cnc([C@@H]5C[Si](C)(C)CN5C(=O)OC(C)(C)C)[nH]4)cc3)cc12 [Compound 76]	> 1000 nM	–	> 10000 nM	–
COC(=O)N[C@H](C(=O)N1C[C@H](F)C[C@H]1c1ncc(-c2ccc(C#Cc3ccc(-c4cnc([C@@H]5C[Si](C)(C)CN5C(=O)OC(C)(C)C)[nH]4)cc3)cc2)[nH]1)C(C)C [Compound 56]	681 nM	–	> 1000 nM	–
CC(C)(C)OC(=O)N1C[Si](C)(C)C[C@H]1c1nc(Cl)c(-c2ccc(-c3ccc(-c4[nH]c([C@@H]5C[C@H]6C[C@H]6N5C(=O)OC(C)(C)C)nc4Cl)cc3)cc2)[nH]1 [Compound 49]	> 1000 nM	> 1000 nM	> 1000 nM	–
CC(C)(C)OC(=O)N1C[Si](C)(C)C[C@H]1c1ncc(-c2ccc(-c3ccc(-c4ncc([C@@H]5C[C@H]6C[C@H]6N5C(=O)OC(C)(C)C)[nH]4)cc3)cc2)[nH]1 [Compound 68]	> 1000 nM	–	> 1000 nM	–
CC(C)(C)OC(=O)N1C[Si](C)(C)C[C@H]1c1ncc(-c2ccc(-c3ccc(-c4cnc([C@@H]5C[C@H]6C[C@H]6N5C(=O)OC(C)(C)C)[nH]4)cc3)cc2)[nH]1 [Compound 46]	> 1000 nM	422 nM	> 1000 nM	–
COC(=O)N[C@H](C(=O)N1CCC[C@H]1c1ncc(-c2ccc(-c3ccc(-c4cnc([C@@H]5C[Si](C)(C)CN5C(=O)[C@@H](NC(=O)OC)C(C)C)[nH]4)c(OC)c3)cc2)[nH]1)C(C)C [Compound 70]	> 1 nM	–	> 1000 nM	0.006 nM
CC(C)(C)OC(=O)N1CCC[C@H]1C(=O)Nc1nn(C(=O)OC(C)(C)C)c2ccc(-c3ccc(-c4cnc([C@@H]5C[Si](C)(C)CN5C(=O)OC(C)(C)C)[nH]4)cc3)cc12 [Compound 77]	> 1000 nM	–	> 10000 nM	–
COC(=O)N[C@H](C(=O)N1C[Si](C)(C)C[C@H]1c1ncc(-c2ccc(-c3ccc(-c4cnc([C@@H]5C[Si](C)(C)CN5C(=O)[C@@H](NC(=O)OC)C(C)C)[nH]4)cc3)cc2)[nH]1)C(C)C [Compound 6]	0.98 nM	–	> 1000 nM	0.015 nM
COC(=O)N[C@H](C(=O)N1CCC[C@H]1c1ncc(-c2ccc(-c3ccc4[nH]c([C@@H]5C[Si](C)(C)CN5C(=O)[C@@H](NC(=O)OC)C(C)C)nc4c3)cc2)[nH]1)C(C)C [Compound 9]	> 1 nM	–	> 1000 nM	< 1 nM
COC(=O)N[C@H](C(=O)N1C[C@H](F)C[C@H]1c1ncc(-c2ccc(-c3ccc(-c4cnc([C@@H]5C[Si](C)(C)CN5C(=O)[C@@H](NC(=O)OC)C(C)C)[nH]4)cc3)cc2)[nH]1)C(C)C [Compound 7]	0.77 nM	–	229 nM	0.009 nM
CC(C)(C)OC(=O)N1C[Si](C)(C)C[C@H]1c1ncc(-c2ccc(-c3ccc(-c4[nH]c([C@@H]5C[C@H]6C[C@H]6N5C(=O)OC(C)(C)C)nc4F)cc3)cc2)[nH]1 [Compound 42]	> 1 nM	> 1000 nM	> 1000 nM	–
COC(=O)N[C@H](C(=O)N1CCC[C@H]1c1cnc(-c2ccc3c(c2)[Si](C)(C)c2cc(-c4cnc([C@@H]5CCCN5C(=O)[C@@H](NC(=O)OC)C(C)C)[nH]4)ccc2-3)[nH]1)C(C)C [Compound 82]	0.076 nM	–	811 nM	0.043 nM
COC(=O)N[C@H](C(=O)N1CCC[C@H]1c1cnc(-c2ccc(-c3ccc(-c4cnc([C@@H]5C[Si](C)(C)CN5C(=O)[C@@H](NC(=O)OC)C(C)C)[nH]4)cc3)cc2)[nH]1)C(C)C [Compound 72]	0.092 nM	–	330 nM	0.005 nM
C[Si]1(C)CN[C@H](c2ncc(-c3ccc(-c4ccc(-c5cnc([C@@H]6CCCN6)[nH]5)cc4)cc3)[nH]2)C1 [Compound 2]	> 100 nM	–	–	> 1000 nM
COC(=O)N[C@H](C(=O)N1CCC[C@H]1c1ncc(-c2ccc(-c3ccc(-c4cnc([C@@H]5C[Si](C)(C)CN5C(=O)[C@@H](NC(=O)OC)C(C)C)[nH]4)cc3)cc2)[nH]1)C(C)C [Compound 3]	0.16 nM	–	398 nM	0.005 nM
CC(C)(C)OC(=O)N1CCC[C@H]1c1cnc(-c2ccc3c(c2)[Si](C)(C)c2cc(-c4cnc([C@@H]5CCCN5C(=O)OC(C)(C)C)[nH]4)ccc2-3)[nH]1 [Compound 80]	> 1 nM	–	–	467 nM
CC(C)(C)OC(=O)N1C[Si](C)(C)C[C@H]1c1ncc(-c2ccc(-c3ccc(-c4[nH]c([C@@H]5CCCN5C(=O)OC(C)(C)C)nc4C4CC4)cc3)cc2)[nH]1 [Compound 61]	81 nM	–	655 nM	–
COC(=O)N[C@H](C(=O)N1CC(F)(F)C[C@H]1c1ncc(-c2ccc(-c3ccc(-c4cnc([C@@H]5C[Si](C)(C)CN5C(=O)[C@@H](NC(=O)OC)C(C)C)[nH]4)cc3)cc2)[nH]1)C(C)C [Compound 4]	0.1 nM	–	272 nM	0.007 nM
COC(=O)N[C@H](C(=O)N1CC(F)(F)C[C@H]1c1cnc(-c2ccc(-c3ccc(-c4cnc([C@@H]5C[Si](C)(C)CN5C(=O)[C@@H](NC(=O)OC)C(C)C)[nH]4)cc3)cc2)[nH]1)C(C)C [Compound 74]	0.27 nM	–	644 nM	–
COC(=O)N[C@H](C(=O)N1C[Si]2(CCCC2)C[C@H]1c1cnc(-c2ccc(-c3ccc(-c4cnc([C@@H]5CCCN5C(=O)[C@@H](NC(=O)OC)C(C)C)[nH]4)cc3)cc2)[nH]1)C(C)C [Compound 73]	0.38 nM	–	973 nM	0.006 nM
